Laboratory results published in ChEMBL document CHEMBL4888484, “Replenishing the malaria drug discovery pipeline: Screening and hit evaluation of the MMV Hit Generation Library 1 (HGL1) against asexual blood stage Plasmodium falciparum ,using a nano luciferase reporter read-out” (2022).

Key:
Plasmodium falciparum [1] = assay: Hit confirmation in dose-response curve in NF54 nanoGlo assay, at 72h; assay type: functional, organism-based, Erythrocyte; set-up: timepoint 72 hour
Plasmodium falciparum [2] = assay: Hit confirmation in dose-response curve in NF54 pLDH assay, at 72h; assay type: functional, organism-based; set-up: timepoint 72 hour; conditions: NF54, Erythrocyte
Plasmodium falciparum [3] = assay: Hit confirmation in dose-response curve in Dd2 pLDH assay, at 72h; assay type: functional, organism-based; set-up: timepoint 72 hour; conditions: Dd2, Erythrocyte
[4] = Hit confirmation in dose-response curve in HepG2 cytotoxicity assay, at 72h; assay type: toxicity, cell-based; set-up: timepoint 72 hour; conditions: human, HepG2 cells
Plasmodium falciparum [5] = assay: Hit confirmation in dose-response curve in NF54 nanoGlo assay, at 12h; assay type: functional, organism-based, Erythrocyte; set-up: timepoint 12 hour
[6] = Plasmodium falciparum, NF54, Erythrocyte, 72 h
[7] = Plasmodium falciparum, NF54, Erythrocyte, 12 h

Structure (SMILES) | IC50 (Plasmodium falciparum [1]; [6]) | IC50 (Plasmodium falciparum [2]) | IC50 (Plasmodium falciparum [3]) | IC50 at 72 h [4] | IC50 (Plasmodium falciparum [5]; [7]) | IC50 (Plasmodium falciparum [1]; erythrocyte) | IC50 (Plasmodium falciparum [5]; erythrocyte)
C[n+]1ccccc1/C=C/c1c[nH]c2ccccc12 | 0.407 µM | 0.676 µM | 0.437 µM | 7.94 µM | 5.01 µM |  | 
COc1ccc(CCc2nc(NC(=O)c3nc(C)sc3C)n[nH]2)cc1OC | 1.45 µM | > 10 µM | > 10 µM | > 10 µM | 0.676 µM |  | 
COc1ccc2[nH]c3c(c2c1)CC(C(=O)O)NC3c1ccc(OC)c(CN2CCN(c3ccccc3F)CC2)c1 (configuration not stated) | 1.55 µM | 3.8 µM | 2.88 µM | > 10 µM | 3.98 µM |  | 
COc1ccc(CC(=N)Nc2cc3cc(OC)c(OC)cc3c(Cc3ccc(OC)c(OC)c3)n2)cc1OC | 2.24 µM | 3.72 µM | 2 µM | > 10 µM | 5.01 µM |  | 
Cc1cc(=O)c(OCC(=O)N2CCN([C@@H](c3ccccc3)c3ccc(Cl)cc3)CC2)c[nH]1 | 1.86 µM | 5.01 µM | 3.47 µM | > 10 µM | > 10 µM |  | 
CCCOc1ccc(Nc2cc(C)nc3ccc(Cl)cc23)cc1 | 2.88 µM | 7.08 µM | 3.24 µM | > 10 µM | > 10 µM |  | 
N#Cc1c(-c2ccccc2)cc(-c2ccccc2)nc1S(=O)(=O)Cc1ccccc1 | 3.09 µM | 4.07 µM | 3.55 µM | > 10 µM | 6.61 µM |  | 
CC[N+](CC)(CC(=O)OC1CC2CCC1(C)C2(C)C)CC(=O)OC1CC2CCC1(C)C2(C)C (configuration not stated) | 1.82 µM | 2.82 µM | 2.19 µM | > 10 µM | 4.68 µM |  | 
N#Cc1nc2c(C#N)c(N)n(CCc3ccccc3)c2nc1C#N | 1.38 µM | 0.347 µM | 1.45 µM | > 10 µM | 2.04 µM |  | 
CCC[N+]1(CC#C[C@@](O)(c2ccccc2)C2(C)CCCC2)CCCCC1 | 3.24 µM | 3.47 µM | 3.24 µM | > 10 µM | > 3.16 µM |  | 
c1ccc2c[n+](Cc3ccc4ccccc4n3)ccc2c1 | 1.95 µM | 2.57 µM | 2.45 µM | > 10 µM | > 10 µM |  | 
CCN1C(=O)c2ccccc2N2C(=O)CC[C@@]12C(=O)Nc1cccc(OC)c1 | 1 µM | 1.35 µM | 1.23 µM | > 10 µM | 1.7 µM |  | 
Oc1cc(OCc2ccccc2F)ccc1-c1[nH]ncc1-c1ccccc1 | 2.19 µM | 4.07 µM | 3.09 µM | > 10 µM | 3.89 µM |  | 
COc1c2c(cc3c1[C@@H](C#CCOc1ccccc1)[N+](C)(C)CC3)OCO2 | 1.66 µM | 3.31 µM | 1.91 µM | > 10 µM | > 10 µM |  | 
COc1cccc(-c2nc(C)c(C(=O)Nc3n[nH]c(CC(C)C)n3)s2)c1 | 0.676 µM | > 10 µM | > 10 µM | > 10 µM | 0.794 µM | 1.17 µM | 0.631 µM
Cc1nn(-c2ccccn2)c(O)c1C(c1ccccc1)c1c(C)nn(-c2ccccn2)c1O | 1.02 µM | 5.5 µM | 3.55 µM | > 10 µM | 1 µM |  | 
CCC[N+]1(CC#C[C@@](O)(c2ccccc2)C(C)(CC)CC)CCCCC1 | 3.39 µM | 4.37 µM | 4.27 µM | > 10 µM | > 10 µM |  | 
COc1ccc(CNC(=O)c2ccc(N3C(=O)[C@@H]4Cc5c([nH]c6ccccc56)C(c5cccc(OC)c5)N4C3=O)cc2)cc1 (some centres not stated) | 3.16 µM | > 10 µM | 8.91 µM | > 10 µM | 6.92 µM |  | 
CN1CCCN(c2ccnc3ccsc23)CC1 | 2.95 µM | 3.8 µM | 2.45 µM | > 10 µM | 3.8 µM |  | 
C[N+]12CCCCC1C(OC(=O)C1(c3ccccc3)CCCC1)CCC2 (configuration not stated) | 2.04 µM | 2.82 µM | 2.04 µM | > 10 µM | > 10 µM |  | 
CCOC1CC(NC2CC(c3ccc(F)cc3)C2)C12CCC2 (configuration not stated) | 5.01 µM | 3.63 µM | 2.63 µM | > 10 µM | 6.31 µM |  | 
CCCN1C(=O)c2ccccc2N2C(=O)CC[C@@]12C(=O)Nc1ccc(OC)cc1 | 1.45 µM | 3.47 µM | 2.75 µM | > 10 µM | 1.38 µM |  | 
CCCN1C(=O)c2ccccc2N2C(=O)CC[C@@]12C(=O)Nc1ccccc1 | 1.1 µM | 4.17 µM | 2.88 µM | > 10 µM | 1.66 µM |  | 
Cn1ccnc1[C@@H]1CCCN1Cc1nccn1Cc1ccccc1 | 2.09 µM | 2.82 µM | 3.24 µM | > 10 µM | 6.76 µM |  | 
COc1ccc(CCNC(=O)C2CCN(c3nccn4nc5c(c34)CCCC5)CC2)cc1OC | 4.07 µM | > 10 µM | > 10 µM | > 10 µM | 8.91 µM |  | 
